Laboratory results as given in ChEMBL document CHEMBL5550169, “A consensus reverse docking approach for identification of a competitive inhibitor of acetyltransferase enhanced intracellular survival protein from Mycobacterium tuberculosis” (Bioorg Med Chem, 2024).
Values after ≈ are worked out from the molar mass of the structure shown.

T1: N-acetyltransferase Eis (Mycobacterium tuberculosis (strain ATCC 25618 / H37Rv), UniProt P9WFK7)
T1 sequence (P9WFK7 whole entry): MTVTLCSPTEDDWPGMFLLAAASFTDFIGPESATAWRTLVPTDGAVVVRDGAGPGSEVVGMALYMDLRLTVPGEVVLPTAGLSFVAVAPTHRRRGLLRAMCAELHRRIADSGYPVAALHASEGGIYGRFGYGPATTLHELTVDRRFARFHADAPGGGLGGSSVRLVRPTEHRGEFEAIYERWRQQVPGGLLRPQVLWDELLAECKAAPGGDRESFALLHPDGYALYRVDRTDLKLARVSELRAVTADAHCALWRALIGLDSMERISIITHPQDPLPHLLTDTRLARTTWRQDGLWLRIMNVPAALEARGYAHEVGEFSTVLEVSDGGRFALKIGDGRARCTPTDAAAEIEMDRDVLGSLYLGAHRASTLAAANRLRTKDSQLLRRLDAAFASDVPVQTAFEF

T2: N-acetyltransferase Eis (Mycobacterium tuberculosis (strain ATCC 25618 / H37Rv)) (UniProt P9WFK7)
T2 sequence (whole entry): T1 sequence (P9WFK7 whole entry)

B1: N-acetyltransferase Eis (Mycobacterium tuberculosis (strain ATCC 25618 / H37Rv)), P9WFK7 (protein)
chain: T1 sequence (P9WFK7 whole entry)

What was measured:
[1] = system: Mycobacterium tuberculosis; assay: Antibacterial activity against Mycobacterium tuberculosis H37Ra measured after 7 days by resazurin reduction microplate assay; assay type: functional; conditions: 168 h, time 7 day
[2] = system: Mycobacterium tuberculosis; assay: Antibacterial activity against Mycobacterium tuberculosis H37Ra measured after 7 days in presence of isoniazid by resazurin reduction microplate assay based checkerboard assay; assay type: functional; conditions: 168 h, time 7 day
[3] = system: Mycobacterium tuberculosis; assay: Antibacterial activity against Mycobacterium tuberculosis H37Ra measured after 7 days in presence of rifampicin by resazurin reduction microplate assay based checkerboard assay; assay type: functional; conditions: 168 h, time 7 day
[4] = system: Mycobacterium tuberculosis; assay: Antibacterial activity against Mycobacterium tuberculosis H37Ra measured after 7 days in presence of ethambutol by resazurin reduction microplate assay based checkerboard assay; assay type: functional; conditions: 168 h, time 7 day
[5] = system: Mycobacterium tuberculosis; assay: Antibacterial activity against Mycobacterium tuberculosis H37Ra measured after 7 days in presence of moxifloxacin by resazurin reduction microplate assay based checkerboard assay; assay type: functional; conditions: 168 h, time 7 day
[6] = system: Mycobacterium tuberculosis; assay: Additive antibacterial activity against Mycobacterium tuberculosis H37Ra assessed as isoniazid MIC at 3 to 50 uM measured after 7 days by resazurin reduction microplate assay based checkerboard assay; assay type: functional; conditions: 168 h, dose 3-50 µM, time 7 day
[7] = system: Mycobacterium tuberculosis; assay: Additive antibacterial activity against Mycobacterium tuberculosis H37Ra assessed as rifampicin MIC at 3 to 50 uM measured after 7 days by resazurin reduction microplate assay based checkerboard assay; assay type: functional; conditions: 168 h, dose 3-50 µM, time 7 day
[8] = system: Mycobacterium tuberculosis; assay: Additive antibacterial activity against Mycobacterium tuberculosis H37Ra assessed as ethambutol MIC at 3 to 50 uM measured after 7 days by resazurin reduction microplate assay based checkerboard assay; assay type: functional; conditions: 168 h, dose 3-50 µM, time 7 day
[9] = system: Mycobacterium tuberculosis; assay: Additive antibacterial activity against Mycobacterium tuberculosis H37Ra assessed as moxifloxacin MIC at 3 to 50 uM measured after 7 days by resazurin reduction microplate assay based checkerboard assay; assay type: functional; conditions: 168 h, dose 3-50 µM, time 7 day
[10] = system: Mycobacterium tuberculosis; assay: Additive antibacterial activity against Mycobacterium tuberculosis H37Ra assessed as fractional inhibitory concentration index at 3 to 50 uM measured after 7 days in presence of isoniazid by resazurin reduction microplate assay based checkerboard assay; assay type: functional; conditions: dose 3-50 µM; time 7 day
[11] = system: Mycobacterium tuberculosis; assay: Additive antibacterial activity against Mycobacterium tuberculosis H37Ra assessed as fractional inhibitory concentration index at 3 to 50 uM measured after 7 days in presence of rifampicin by resazurin reduction microplate assay based checkerboard assay; assay type: functional; conditions: dose 3-50 µM; time 7 day
[12] = system: Mycobacterium tuberculosis; assay: Additive antibacterial activity against Mycobacterium tuberculosis H37Ra assessed as fractional inhibitory concentration index at 3 to 50 uM measured after 7 days in presence of ethambutol by resazurin reduction microplate assay based checkerboard assay; assay type: functional; conditions: dose 3-50 µM; time 7 day
[13] = system: Mycobacterium tuberculosis; assay: Additive antibacterial activity against Mycobacterium tuberculosis H37Ra assessed as fractional inhibitory concentration index at 3 to 50 uM measured after 7 days in presence of moxifloxacin by resazurin reduction microplate assay based checkerboard assay; assay type: functional; conditions: dose 3-50 µM; time 7 day
N-acetyltransferase Eis [14] = molecular target: T1, N-acetyltransferase Eis; assay: Inhibition of Mycobacterium tuberculosis H37Rv Eis protein using kanamycin as substrate preincubated for 10 mins followed by AcCoA addition and measured every 30 secs for 30 mins
N-acetyltransferase Eis [15] = molecular target: T1, N-acetyltransferase Eis; assay: Competitive inhibition of Mycobacterium tuberculosis H37Rv Eis protein using varying concentrations of kanamycin as substrate assessed as inhibition constant by Lineweaver-Burk plot analysis
[16] = molecular target: T2, N-acetyltransferase Eis (Mycobacterium tuberculosis (strain ATCC 25618 / H37Rv)); assay: Binding affinity to Mycobacterium tuberculosis H37Rv Eis protein assessed as gibbs free energy
[17] = compound: COc1ccc(C(=O)CSc2nc3ccccc3c(=N)n2-c2ccccc2)cc1; assay: Competitive inhibition of Mycobacterium tuberculosis H37Rv Eis protein using varying concentrations of kanamycin as substrate assessed as Km at 6.25 uM by Lineweaver-Burk plot analysis (reference value: 448 +/- 99 microM)
[18] = compound: COc1ccc(C(=O)CSc2nc3ccccc3c(=N)n2-c2ccccc2)cc1; assay: Competitive inhibition of Mycobacterium tuberculosis H37Rv Eis protein using varying concentrations of kanamycin as substrate assessed as Km at 11 uM by Lineweaver-Burk plot analysis (reference value: 448 +/- 99 microM)
[19] = compound: COc1ccc(C(=O)CSc2nc3ccccc3c(=N)n2-c2ccccc2)cc1; assay: Competitive inhibition of Mycobacterium tuberculosis H37Rv Eis protein using varying concentrations of kanamycin as substrate assessed as Km at 15 uM by Lineweaver-Burk plot analysis (reference value: 448 +/- 99 microM)
[20] = compound: COc1ccc(C(=O)CSc2nc3ccccc3c(=N)n2-c2ccccc2)cc1; assay: Competitive inhibition of Mycobacterium tuberculosis H37Rv Eis protein using varying concentrations of kanamycin as substrate assessed as Vmax at 6.25 uM by Lineweaver-Burk plot analysis (reference value: 119 +/- 11 microM)
[21] = compound: COc1ccc(C(=O)CSc2nc3ccccc3c(=N)n2-c2ccccc2)cc1; assay: Competitive inhibition of Mycobacterium tuberculosis H37Rv Eis protein using varying concentrations of kanamycin as substrate assessed as Vmax at 11 uM by Lineweaver-Burk plot analysis (reference value: 119 +/- 11 microM)
[22] = compound: COc1ccc(C(=O)CSc2nc3ccccc3c(=N)n2-c2ccccc2)cc1; assay: Competitive inhibition of Mycobacterium tuberculosis H37Rv Eis protein using varying concentrations of kanamycin as substrate assessed as Vmax at 15 uM by Lineweaver-Burk plot analysis (reference value: 119 +/- 11 microM)

Molecule | MIC [1] [µM] | also measured
O=C(CSc1nc2sc3c(c2c(=O)n1Cc1ccccc1)CCCC3)c1ccccc1 | > 200 | 
C=CCn1c(SCC(=O)c2ccccc2)nc2ccccc2c1=O | 200 (≈ 67.3 µg/mL) | 
O=C(CSc1nc2ccccc2c(=O)n1-c1ccccc1)c1ccc(Cl)cc1 | 200 (≈ 81.4 µg/mL) | 
CO[C@H]1/C=C/O[C@@]2(C)Oc3c(C)c(O)c4c(O)c(c(/C=N/N5CCN(C)CC5)c(O)c4c3C2=O)NC(=O)/C(C)=C\C=C\[C@H](C)[C@H](O)[C@@H](C)[C@@H](O)[C@@H](C)[C@H](OC(C)=O)[C@@H]1C [RIFAMPIN] | 0.01 (≈ 0.00823 µg/mL) | 
N#C/C(=C\c1c[nH]c2ccccc12)C(=O)Nc1ccccc1 | > 200 | 
COc1ccc(C(=O)CSc2nc3ccccc3c(=N)n2-c2ccccc2)cc1 | 50 (≈ 20.1 µg/mL) | MIC [2]: 50 µM; MIC [3]: 50 µM; MIC [4]: 50 µM; MIC [5]: 50 µM; MIC [6]: 0.23 µM; MIC [7]: 0.01 µM; MIC [8]: 8 µM; MIC [9]: 0.4 µM; fractional inhibitory concentration index (FICI) [10]: 2; fractional inhibitory concentration index (FICI) [11]: 2; fractional inhibitory concentration index (FICI) [12]: 2; fractional inhibitory concentration index (FICI) [13]: 3; IC50 (N-acetyltransferase Eis [14]): 11 µM; Ki (N-acetyltransferase Eis [15]): 14.4 µM; deltaG [16]: -7.04 kcal/mol
C=CCn1c(SCC(=O)c2ccccc2)nc2sc3c(c2c1=O)CCCC3 | > 200 | 
Cc1ccc(C(=O)CSc2nc3sc4c(c3c(=O)n2-c2ccccc2)CCCC4)cc1 | > 200 | 
O=C(CSc1nc2sc3c(c2c(=O)n1-c1ccccc1)CCCC3)c1ccc(Cl)cc1 | > 200 | 
C=CCn1c(SCC(=O)c2ccc(C)cc2)nc2sc3c(c2c1=O)CCCC3 | > 200 | 
COc1c(N2C[C@@H]3CCCN[C@@H]3C2)c(F)cc2c(=O)c(C(=O)O)cn(C3CC3)c12 [MOXIFLOXACIN] | 0.2 (≈ 0.0803 µg/mL) | 
N=c1c2ccccc2nc(SCC(=O)c2ccc(Cl)cc2)n1-c1ccccc1 | > 200 | 
N#C/C(=C\c1c[nH]c2ccccc12)C(=O)NCCN1CCCCC1 | 200 (≈ 64.5 µg/mL) | 
NNC(=O)c1ccncc1 [ISONIAZID] | 0.23 (≈ 0.0315 µg/mL) | 
C=CCn1c(SCC(=O)c2ccc(Cl)cc2)nc2ccccc2c1=N | > 200 | 
N#C/C(=C\c1c[nH]c2ccccc12)C(=O)NCCCc1ccccc1 | > 200 | 
Cc1ccc2[nH]cc(/C=C(\C#N)C(=O)NCCCc3ccccc3)c2c1 | > 200 | 
N#CCC(=O)NC(=O)/C(C#N)=C/c1c[nH]c2ccccc12 | > 200 | 
N#C/C(=C\c1c[nH]c2ccccc12)C(=O)N1CCCC1 | > 200 | 
C=CCn1c(SCC(=O)c2ccccc2)nc2ccccc2c1=N | 200 (≈ 67.1 µg/mL) | 
CC[C@@H](CO)NCCN[C@@H](CC)CO [ETHAMBUTOL] | 8 (≈ 1.63 µg/mL) | 
N#C/C(=C\c1c[nH]c2ccccc12)C(=O)N1CCOCC1 | > 200 | 
B1 |  | Km [17]: 717 µM; Km [18]: 721 µM; Km [19]: 632 µM; Vmax [20]: 112 µM/s; Vmax [21]: 108 µM/s; Vmax [22]: 94 µM/s
